This note sets out measurements from publication PMC9935382, “Sorting nexin-dependent therapeutic targeting of oncogenic epidermal growth factor receptor” (Cancer Gene Therapy, 2022).

For one assay, the system named is MDA-MB-231 cells. Put plainly: MTT cell viability, MDA-MB-231. The assay is classed as cell-based. As to conditions: 3 days. As to the method: (§1) 2 × 10^3 cells were plated per well in a 96 well plate and left to adhere overnight. The following day, drug treatments were started and continued for 3 days. To measure the viability of the remaining cell population, 10% 3-(4,5-dimethylthiazol-2-yl)-2,5-diphenyltetrazolium (MTT) in media was added and incubated for 2 hours and conversion of MTT to formazan at 540 nm using a biotech Synergy LX plate reader.
(§2) A–G Cells were plated in a 96-well plate at 2000 cells per well. […] Cell viability was then measured with an MTT assay, viability of treated cells were compared with the vehicle control. H MDA-MB-468 cells were plated and incubated+/− IPTG for 2 days prior to drug treatment to induce expression of an EGFR-targeted shRNA.

A further assay has as its system MCF10A cells. Put plainly: MTT cell viability, MCF10A. As to conditions: immortalized breast epithelial line, 3 days. The assay is classed as cell-based. As to the method:
as §1, §2

Consider `CC[C@H](C)[C@H](NC(=O)[C@@H](NC(=O)[C@H](Cc1c[nH]cn1)NC(=O)[C@H](CC(N)=O)NC(=O)[C@H](CCCCN)NC(=O)[C@H](C)NC(=O)[C@H](CCCNC(=N)N)NC(=O)[C@H](C)NC(=O)[C@H](CCC(N)=O)NC(=O)[C@H](CCCNC(=N)N)NC(=O)[C@H](C)NC(=O)[C@H](C)NC(=O)[C@H](C)NC(=O)[C@H](CCCNC(=N)N)NC(=O)[C@H](C)NC(=O)[C@H](Cc1ccc(O)cc1)NC(C)=O)C(C)C)C(=O)N[C@@H](CCCCN)C(=O)N[C@@H](Cc1ccc(O)cc1)C(=O)N[C@@H](CC(C)C)C(=O)N[C@@H](CCC(=O)O)C(=O)N[C@H](C(=O)N[C@@H](CC(C)C)C(=O)N[C@@H](CC(C)C)C(=O)N[C@@H](Cc1ccc(O)cc1)C(=O)N[C@@H](CO)C(=O)N[C@@H](CCC(N)=O)C(=O)N[C@@H](CCC(N)=O)C(=O)N[C@@H](CCC(N)=O)C(=O)N[C@@H](CC(C)C)C(=O)N[C@@H](C)C(=O)N[C@@H](CCCCN)C(=O)N[C@@H](Cc1ccc(O)cc1)C(=O)N[C@@H](Cc1c[nH]c2ccccc12)C(=O)N[C@@H](CCC(=O)O)C(=O)N[C@@H](C)C(=O)N[C@@H](Cc1ccccc1)C(=O)N[C@@H](CC(C)C)C(N)=O)[C@@H](C)O` [cSNX1.3], for which, in the assay on MDA-MB-231 cells, the “sensitivity (cell viability)” value is “sensitive”. Moreover, the “impact on cell viability / growth” value in the assay with MCF10A cells is reported as “almost no impact”.
